Tests used:
Experiment in all cases: relative viability (nuclei count vs DMSO), 5 days (fraction); higher = more cells survive
Mirin + Linsitinib = compound: N=C1NC(=O)/C(=C/c2ccc(O)cc2)S1 [Mirin] + C[C@]1(O)C[C@@H](c2nc(-c3ccc4ccc(-c5ccccc5)nc4c3)c3c(N)nccn32)C1 [Linsitinib] (partner 1 µM)
How it was run: (§1)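 Lung cancer cell lines were seeded in 1536-well plates and dosed by pin tool the next day, with either a single drug or a fixed anchor-drug dose combined with five library-drug doses (not always all listed) spaced in √10 steps. Five days later, one step fixed the cells and stained their nuclei (final 0.05% Triton X-100, 1% formaldehyde, 1 ug/ml Hoechst), and nuclei were counted on 4× images. Relative viability is the nuclei count in treated wells divided by the count in vehicle wells, and each value is the median of duplicate plates.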

Mirin + Trametinib = compound: N=C1NC(=O)/C(=C/c2ccc(O)cc2)S1 [Mirin] + CC(=O)Nc1cccc(-n2c(=O)n(C3CC3)c(=O)c3c(Nc4ccc(I)cc4F)n(C)c(=O)c(C)c32)c1 [Trametinib] (partner 0.02 µM)
How it was run: as §1

[1] = compound: CCC1=CN=CN=C1N2CCN(CC2)CC3=NC4=C(N3)C=C(C=C4)C(F)(F)F + CC1(C)CCC(c2ccc(Cl)cc2)=C(CN2CCN(c3ccc(C(=O)NS(=O)(=O)c4ccc(N[C@H](CCN5CCOCC5)CSc5ccccc5)c(S(=O)(=O)C(F)(F)F)c4)cc3)CC2)C1 [Navitoclax] (partner 0.5 µM)
How it was run: as §1

[2] = compound: CCn1c(-c2nonc2N)nc2cnc(Oc3cccc(NC(=O)c4ccc(OCCN5CCOCC5)cc4)c3)cc21 + COc1cccc2cc(-c3nc([C@H]4CC[C@H](C(=O)O)CC4)n4ncnc(N)c34)[nH]c12 [OSI-027] (partner 0.5 µM)
How it was run: as §1

| Cell Line | relative viability (Mirin + Linsitinib; first compound 0.25 µM) | relative viability (Mirin + Linsitinib; first compound 0.7906 µM) | relative viability (Mirin + Linsitinib; first compound 2.5 µM) | relative viability (Mirin + Linsitinib; first compound 7.906 µM) | relative viability (Mirin + Linsitinib; first compound 25 µM) | relative viability (Mirin + Trametinib; first compound 0.25 µM) | relative viability (Mirin + Trametinib; first compound 0.7906 µM) | relative viability (Mirin + Trametinib; first compound 2.5 µM) | relative viability (Mirin + Trametinib; first compound 7.906 µM) | relative viability (Mirin + Trametinib; first compound 25 µM) | relative viability ([1]; first compound 0.04 µM) | relative viability ([1]; first compound 0.1265 µM) | relative viability ([1]; first compound 0.4 µM) | relative viability ([1]; first compound 1.265 µM) | relative viability ([1]; first compound 4 µM) | relative viability ([2]; first compound 0.04 µM) | relative viability ([2]; first compound 0.1265 µM) | relative viability ([2]; first compound 0.4 µM) | relative viability ([2]; first compound 1.265 µM) | relative viability ([2]; first compound 4 µM) |
| --- | --- | --- | --- | --- | --- | --- | --- | --- | --- | --- | --- | --- | --- | --- | --- | --- | --- | --- | --- | --- |
| NCI-H838 | 1.01 | 1.14 | 1.12 | 1.1 | 0.761 | 0.548 | 0.577 | 0.52 | 0.528 | 0.513 | 1.23 | 1.12 | 1.11 | 1.14 | 1.07 | 0.338 | 0.294 | 0.228 | 0.242 | 0.194 |
| HARA | 0.935 | 0.994 | 0.988 | 1.02 | 0.738 | 0.886 |  | 0.795 | 0.674 | 0.523 | 1.18 | 1.13 | 1.15 | 1.11 | 1.19 | 0.533 | 0.38 | 0.141 | 0.148 | 0.102 |
| NCI-H23 | 0.618 |  | 0.573 | 0.612 | 0.543 | 0.358 |  | 0.384 | 0.279 | 0.298 | 0.845 | 0.903 | 0.783 | 0.749 | 1.04 | 0.614 | 0.768 | 0.249 | 0.534 | 0.525 |
| LCLC-97TM1 | 0.174 | 0.166 | 0.177 | 0.143 | 0.141 | 0.172 | 0.179 | 0.235 | 0.176 | 0.165 | 0.411 | 0.384 | 0.396 | 0.489 | 0.396 | 0.516 | 0.655 | 0.254 | 0.691 | 0.528 |
| LC-2-ad | 0.816 | 1.03 | 0.937 | 0.833 | 0.732 | 0.964 | 1.06 | 0.979 | 0.906 | 0.945 | 0.459 | 0.603 | 0.522 | 0.324 | 0.351 | 0.892 | 0.8 | 0.39 | 0.386 | 0.498 |
| SW 1573 | 0.815 | 0.728 | 0.79 | 0.731 | 0.648 | 0.647 | 0.557 | 0.567 | 0.51 | 0.369 | 0.95 | 1.09 | 0.709 | 0.801 | 0.891 | 0.835 | 0.594 | 0.299 | 0.326 | 0.237 |
| EKVX | 1.11 | 0.959 | 1.03 | 0.933 | 1 | 0.373 | 0.246 | 0.382 | 0.35 | 0.376 | 0.96 | 0.96 | 0.886 | 0.724 | 0.977 | 0.839 | 0.77 | 0.613 | 0.65 | 0.545 |
| NCI-H2087 | 0.992 | 1.11 | 0.915 | 1.23 | 0.841 | 0.292 | 0.211 | 0.161 | 0.19 | 0.209 | 1.03 | 0.982 | 0.914 | 0.871 | 0.723 | 0.824 | 0.719 | 0.418 | 0.535 | 0.551 |
